In US9540343B2 (Gilead Sciences, Inc., priority 2011, dated 2017):

Legend:
[1] = test system: HIV-IIIb; assay: Test A: Antiviral assay in MT4 cells; format: cell-based, HIV-1; conditions: Human immunodeficiency virus 1, IIIB, MT4, 120 h, read-out: % inhibition at 2 μM, percent inhibition of virus-induced cell killing, from dose response curve at 2 uM drug; MT-4 cells infected with HIV-IIIb, 5 days, CellTiter-Glo
[2] = in vitro; conditions: human, uninfected MT-4 cells, CC50 (nM), same protocol as Test A, CellTiter-Glo
Method in brief: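 Cytoprotection read-out: CellTiter-Glo chemiluminescence after 5 days at 37 °C of HIV-IIIb-infected MT-4 cells (m.o.i. 0.003) with compound in 10-point 3-fold dilutions, quadruplicate, 10% FBS. Cytotoxicity (CC50) measured identically without virus.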

SMILES	inhibition at 2 µM [1] [%]	CC50 at 5 days [2] [nM]
CC(C)(C)c1cc(C(F)(F)F)nn1CC(=O)N[C@@H](Cc1cc(F)cc(F)c1)c1ncccc1-c1ccc(F)c(C(N)=O)c1 [Example 244B, (S)-5-(2-(1-(2-(5-(tert-butyl)-3-(trifluoromethyl)-1H-pyrazol-1-yl)acetamido)-2-(3,5-difluorophenyl)ethyl)pyridin-3-yl)-2-fluorobenzamide]	0	16400
Cc1ccccc1-c1ccnc(C(Cc2ccccc2)NC(=O)Cc2c[nH]c3ccc(O)cc23)n1 (stereo not drawn) [Example 9E, 2-(5-hydroxy-1H-indol-3-yl)-N-(2-phenyl-1-(4-o-tolylpyrimidin-2-yl)ethyl)acetamide]	0	35900
NC(=O)c1cc(-c2cccnc2[C@H](Cc2cc(F)cc(F)c2)NC(=O)Cn2nc(C(F)(F)F)c3c2C2CC2C3=O)ccc1F (stereo partly drawn) [Example 465B, 5-(2-((1S)-2-(3,5-difluorophenyl)-1-(2-(4-oxo-3-(trifluoromethyl)-4,4-a,5,5a-tetrahydro-1H-cyclopropa[4,5]cyclopenta[1,2-c]pyrazol-1-yl)acetamido)ethyl)pyridin-3-yl)-2-fluorobenzamide]	3	> 53200
CCOC(=O)c1nn(CC(=O)N[C@@H](Cc2cc(F)cc(F)c2)c2ncccc2-c2ccc(F)c(C(N)=O)c2)c2c1CC1CC2C1 [Example 81D, (S)-5-(2-(2-(3,5-difluorophenyl)-1-(2-(4,5,6,7-tetrahydro-3-carboethoxy-5,7-(methano)indazol-1-yl)acetamido)ethyl)pyridin-3-yl)-2-fluorobenzamide]	75	16700
NC(=O)c1cc(-c2cccnc2[C@H](Cc2cc(F)cc(F)c2)NC(=O)[C@@H]2C[C@H](c3ccccc3)CN2)ccc1F [Example 177, (2S,4R)—N—((S)-1-(3-(3-carbamoyl-4-fluorophenyl)pyridin-2-yl)-2-(3,5-difluorophenyl)ethyl)-4-phenylpyrrolidine-2-carboxamide]	0	51700
O=C(Cn1nc(C(F)(F)F)c2c1CC1CC21)N[C@@H](Cc1cc(F)cc(F)c1)c1ncccc1-c1cnc2[nH]ccc2c1 (stereo partly drawn) [Example 595, N—((S)-1-(3-(1H-pyrrolo[2,3-b]pyridin-5-yl)pyridin-2-yl)-2-(3,5-difluorophenyl)ethyl)-2-(3-(trifluoromethyl)-3b,4,4a,5-tetrahydro-1H-cyclopropa[3,4]cyclopenta[1,2-c]pyrazol-1-yl)acetamide]	99	12700
O=C(Cn1nc(C(F)(F)F)c2c1CCCC2)N[C@@H](Cc1cc(F)cc(F)c1)c1ncccc1-c1ccc(N2CCCC2)nc1 [Example 432, (S)—N-(2-(3,5-difluorophenyl)-1-(6′-(pyrrolidin-1-yl)-3,3′-bipyridin-2-yl)ethyl)-2-(3-(trifluoromethyl)-4,5,6,7-tetrahydro-1H-indazol-1-yl)acetamide]	90	7990
NC(=O)c1cc(-c2cccnc2[C@H](Cc2cc(F)cc(F)c2)NC(=O)Cn2c(CN3CCOCC3)nc3ccccc32)ccc1F [Example 577, (S)-5-(2-(2-(3,5-difluorophenyl)-1-(2-(2-(morpholinomethyl)-1H-benzo[d]imidazol-1-yl)acetamido)ethyl)pyridin-3-yl)-2-fluorobenzamide]	20	> 53200
CC(C)(C)OC(=O)N1CCOC[C@@H]1C(=O)N[C@@H](Cc1cc(F)cc(F)c1)c1ncccc1-c1ccc(F)c(C(N)=O)c1 [Example 133, (R)-tert-butyl 3-((S)-1-(3-(3-carbamoyl-4-fluorophenyl)pyridin-2-yl)-2-(3,5-difluorophenyl)ethylcarbamoyl)morpholine-4-carboxylate]	1	> 53000
O=C(Cn1nc(C(F)(F)F)c2c1CCCC2)N[C@H](Cc1cc(F)cc(F)c1)c1ncncc1-c1ccc(Cl)cc1 [Example 383, (R)—N-(1-(5-(4-chlorophenyl)pyrimidin-4-yl)-2-(3,5-difluorophenyl)ethyl)-2-(3-(trifluoromethyl)-4,5,6,7-tetrahydro-1H-indazol-1-yl)acetamide]	32	15500
NC(=O)c1cc(-c2cccnc2[C@H](Cc2cc(F)cc(F)c2)NC(=O)[C@@H]2CC(=O)CN2)ccc1F [Example 167, (S)—N—((S)-1-(3-(3-carbamoyl-4-fluorophenyl)pyridin-2-yl)-2-(3,5-difluorophenyl)ethyl)-4-oxopyrrolidine-2-carboxamide]	0	> 53000
NC(=O)c1cc(-c2cccnc2[C@H](Cc2cc(F)cc(F)c2)NC(=O)Cn2nc(C(F)(F)F)c3c2CC(F)(F)C3)ccc1F [Example 239, (S)-5-(2-(1-(2-(5,5-difluoro-3-(trifluoromethyl)-5,6-dihydrocyclopenta[c]pyrazol-1(4H)-yl)acetamido)-2-(3,5-difluorophenyl)ethyl)pyridin-3-yl)-2-fluorobenzamide]	18	19400
CNC(=O)c1ccc(-c2cccnc2[C@H](Cc2cc(F)cc(F)c2)NC(=O)Cc2c[nH]c3ccc(F)cc23)cc1Cl [Example 405, (S)-2-chloro-4-(2-(2-(3,5-difluorophenyl)-1-(2-(5-fluoro-1H-indol-3-yl)acetamido)ethyl)pyridin-3-yl)-N-methylbenzamide]	11	21100
CS(=O)(=O)n1cc(CC(=O)N[C@@H](Cc2cc(F)cc(F)c2)c2ncccc2-c2ccc(F)c(C(N)=O)c2)c2cc(F)ccc21 [Example 444, (S)-5-(2-(2-(3,5-difluorophenyl)-1-(2-(5-fluoro-1-(methylsulfonyl)-1H-indol-3-yl)acetamido)ethyl)pyridin-3-yl)-2-fluorobenzamide]	23	15500
CC1(O)CCCc2c(C(F)F)nn(CC(=O)N[C@@H](Cc3cc(F)cc(F)c3)c3ncccc3-c3ccc(F)c(C(N)=O)c3)c21 (stereo partly drawn) [Example 349B, 5-(2-((1S)-1-(2-(3-(difluoromethyl)-7-hydroxy-7-methyl-4,5,6,7-tetrahydro-1H-indazol-1-yl)acetamido)-2-(3,5-difluorophenyl)ethyl)pyridin-3-yl)-2-fluorobenzamide]	94	40800
NC(=O)c1cc(-c2cccnc2[C@H](Cc2cc(F)cc(F)c2)NC(=O)Cn2nc(C(F)F)c3c2CCCC3)ccc1F [Example 307, (S)-5-(2-(1-(2-(3-(difluoromethyl)-4,5,6,7-tetrahydro-1H-indazol-1-yl)acetamido)-2-(3,5-difluorophenyl)ethyl)pyridin-3-yl)-2-fluorobenzamide]	99	26700
NC(=O)c1cc(-c2cccnc2[C@H](Cc2cc(F)cc(F)c2)NC(=O)Cn2nc(C(F)(F)F)c3c2CC(O)C3)ccc1F (stereo partly drawn) [Example 265]	74	> 53200
Cc1cnc([C@H](Cc2cc(F)cc(F)c2)NC(=O)Cc2c[nH]c3ccc(O)cc23)c(-c2ccc(F)c(C(N)=O)c2)c1 [Example 262G, (S)-5-(2-(2-(3,5-difluorophenyl)-1-(2-(5-hydroxy-1H-indol-3-yl)acetamido)ethyl)-5-methylpyridin-3-yl)-2-fluorobenzamide]	109	> 51200
O=C(Cc1c[nH]c2ccc(O)cc12)N[C@@H](Cc1cc(F)cc(F)c1)c1ncccc1-c1ccc(F)cc1 [Example 113, (S)—N-(2-(3,5-difluorophenyl)-1-(3-(4-fluorophenyl)pyridin-2-yl)ethyl)-2-(5-hydroxy-1H-indol-3-yl)acetamide]	78	22300
CC(C)(C)OC(=O)N1C[C@H](OCc2ccccc2)C[C@H]1C(=O)N[C@@H](Cc1cc(F)cc(F)c1)c1ncccc1-c1ccc(F)c(C(N)=O)c1 [Example 145, (2S,4R)-tert-butyl 4-(benzyloxy)-2-((S)-1-(3-(3-carbamoyl-4-fluorophenyl)pyridin-2-yl)-2-(3,5-difluorophenyl)ethylcarbamoyl)pyrrolidine-1-carboxylate]	0	22400
NC(=O)c1cc(-c2cccnc2[C@H](Cc2cc(F)cc(F)c2)NC(=O)Cn2nc(C=O)c3c2C2CC(C3)C2)ccc1F [Example 96, (S)-5-(2-(2-(3,5-difluorophenyl)-1-(2-(4,5,6,7-tetrahydro-3-formyl-5,7-(methano)indazol-1-yl)acetamido)ethyl)pyridin-3-yl)-2-fluorobenzamide]	104	9620
CC12CCC(c3c(C(F)(F)F)nn(CC(=O)N[C@@H](Cc4cc(F)cc(F)c4)c4ncccc4-c4ccc(F)c(C(N)=O)c4)c31)C2(C)C (stereo partly drawn) [Example 74D, (S)-5-(2-(2-(3,5-difluorophenyl)-1-(2-(L-4,5,6,7-Tetrahydro-3-trifluoromethyl-7,8,8-trimethyl-1H-4,7-(methano)indazol-1-yl)acetamido)ethyl)pyridin-3-yl)-2-fluorobenzamide]	4	8470
Cn1cc(-c2cccnc2[C@H](Cc2cc(F)cc(F)c2)NC(=O)Cc2c[nH]c3ccc(F)cc23)cn1 [Example 440, (S)—N-(2-(3,5-difluorophenyl)-1-(3-(1-methyl-1H-pyrazol-4-yl)pyridin-2-yl)ethyl)-2-(5-fluoro-1H-indol-3-yl)acetamide]	82	21700
O=C(Cc1c[nH]c2ccc(F)cc12)N[C@@H](Cc1cc(F)cc(F)c1)c1ncccc1-c1ccnc(-c2nn[nH]n2)c1 [Example 302, (S)—N-(1-(2′-(2H-tetrazol-5-yl)-3,4′-bipyridin-2-yl)-2-(3,5-difluorophenyl)ethyl)-2-(5-fluoro-1H-indol-3-yl)acetamide]	0	16800
